Patent US20210317092A1 (BAYER PHARMA AKTIENGESELLSCHAFT, priority 2016, published 2021)

Experiments:
[1] = system: IL-6 secretion; assay: Inhibitory activity on Bradykinin B1 agonist-induced secretion of IL-6 in human IMR-90 cells; type: cell-based; conditions: 30 min compound, stimulated with 0.1 μM Lys-[Des-Arg9]Bradykinin and 0.1 μM Sar-[D-Phe8]-des-Arg9-Bradykinin for 5 hours
Text: Inhibitory activity on Bradykinin B1 agonist-induced secretion of IL-6 and IL-8 in human IMR-90 cells
The effect of the compound examples on secretion of the cytokine IL-6 and IL-8 has been investigated in the human foetal lung fibroblast IMR-90 cell line. Here the induction of the cytokine secretion was induced by the Bradykinin B1 agonists Lys-[Des-Arg9]Bradykinin (CAS 71800-36-7, Tocris Bioscience) and Sar-[D-Phe8]-des-Arg9-Bradykinin (CAS 126959-88-4, Tocris Bioscience) leading to the activation of the Bradykinin B1-driven signalling pathway. This effect is indicative for a strong anti-inflammatory mode of action in kinin driven inflammation.
IMR-90 cells were cultured in Eagle's Minimum Essential Medium (EMEM) containing 2 mM L-glutamine, 1 g/L glucose, 1.5 g/L NaHCO3, 1 mM sodium pyruvate and non-essential amino acids (ATCC, 30-2003™) supplemented with 10% FBS (Biochrom, S0615) and 50 U/mL Penicillin, 50 μg/mL Streptomycin (PAA, P11-010). The assay was performed in EMEM and a cell density of […] IMR-90 cells/96-well. The compound examples have been serial diluted in 100% DMSO and evaluated at 8 different concentrations within the range of 3 nM and 10 μM and a final DMSO concentration of 0.4%. The IMR-90 cells have been incubated with the respective concentration of the compound for 30 min. The enhanced secretion of IL-6 and IL-8 was induced by the stimulation of these cells with 0.1 μM Lys-[Des-Arg9]Bradykinin (Tocris, catalogue no. 3225) and 0.1 μM Sar-[D-Phe8]-des-Arg9-Bradykinin (Tocris, catalogue no. 3230) for 5 hours at 37° C. and 5% C02. Further, cells have been treated with Lys-[Des-Arg9]Bradykinin and Sar-[D-Phe8]-des-Arg9-Bradykinin as neutral control and with 0.1% DMSO as inhibitor control. The amount of IL-6 and IL-8 in the supernatant was determined using the Human Prolnflammatory Panel II (4-Plex) (MSD, K15025B) according to manufacturer's instruction. Briefly, supernatants were added onto assay plates and incubated at room temperature for 1-2 h with vigorous shaking at 600 rpm. Detection antibodies were then added onto the supernatants and incubated at room temperature for an additional 1-2 h with vigorous shaking at 600 rpm. Plates were washed three times with phosphate-buffered saline (PBS; 137 mM NaCl, 2.7 mM KCl, 6.5 mM Na2HPO4, 1.7 mM KH2P04) containing 0.05% Tween-20 (Bio-Rad, 161-0781) and electrochemiluminescence detected using the MSD Sector Imager 6000 plate reader. The cell viability was measured using the CellTiter-Glo Luminescent Assay (Promega, G7571) following the manufacturers protocol. Briefly, the CellTiter-Glo Reagent was diluted with PBS (1:1) and added directly to cells. After incubation and shaking for 10 minutes luminescent signal was measured which is proportional to the amount of ATP present.
The effect of the compound on the amount of secreted cytokine has been calculated as 100/(measured cytokine concentration of neutral control-measured cytokine concentration of inhibitor control)*(measured cytokine concentration of compound dose-measured cytokine concentration of inhibitor control). IC50 values are determined using 4-parameter-fit.
The compound examples were tested in triplicates per plate and the inhibitory activity was determined as the relation between neutral and inhibitor control in percent. IC50 values were calculated using the 4-parameter logistic model.

[2] = biological target: T1, native human Bradykinin B1 receptor (Homo sapiens, UniProt P46663); assay: Calcium flux Assay (FLIPR) with human fibroblasts expressing Bradykinin B1 receptor (hB1 IMR-90); type: cell-based; conditions: IMR-90 human fibroblasts expressing native Bradykinin B1 receptor
T1 construct: which express native human Bradykinin B1 receptor after induction with human IL-10; Coriell Institute; host or cells: IMR-90 human foetal lung fibroblasts, cytokine-induced
T1 sequence (P46663 1-353): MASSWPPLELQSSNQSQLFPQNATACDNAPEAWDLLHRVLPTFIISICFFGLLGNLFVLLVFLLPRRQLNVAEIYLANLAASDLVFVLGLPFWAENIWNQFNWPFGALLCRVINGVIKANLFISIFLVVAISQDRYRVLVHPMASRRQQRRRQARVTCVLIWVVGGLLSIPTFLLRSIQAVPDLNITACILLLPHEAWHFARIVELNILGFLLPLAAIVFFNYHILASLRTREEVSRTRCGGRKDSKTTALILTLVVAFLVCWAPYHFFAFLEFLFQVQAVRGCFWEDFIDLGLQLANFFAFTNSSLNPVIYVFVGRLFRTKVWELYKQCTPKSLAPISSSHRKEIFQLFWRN
Outline: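 IMR-90 human foetal lung fibroblasts induced with 0.35 ng/mL […] for 3 h, Fluo-4/AM-loaded, preincubated with compound (8 concentrations, triplicate) for 30 min at 28 °C, then challenged with Lys-(Des-Arg)-bradykinin at EC90. Ca2+ fluorescence was read at 538 nm; full inhibition set by 20 µM Lys-(Des-Arg-Leu)-bradykinin; IC50 derived.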

IC50 [1]	IC50 [2]	SMILES
225 nM	14.2 nM	COc1ccc(-c2ccc(NC(=O)C3(c4cccc(Cl)c4)CC3)cc2-c2nnn[nH]2)cc1OC [Example 1, 1-(3-Chlorophenyl)-N-[3′,4′-dimethoxy-2-(1H-tetrazol-5-yl)biphenyl-4-yl]cyclopropanecarboxamide]
57 nM	14.9 nM	CCOc1ccc(-c2ccc(NC(=O)C3(c4cccc(Cl)c4)CC3)cc2-c2nnn[nH]2)cn1 [Example 253, 1-(3-Chlorophenyl)-N-[4-(6-ethoxypyridin-3-yl)-3-(1H-tetrazol-5-yl)phenyl]cyclopropanecarboxamide]
